Columns and labels:
[1] = Average hydrodynamic diameter of peptidesomes by DLS at different temperatures; assay type: physicochemical; conditions: distilled water, 20-40° C.
Experimental: The size of self-assembled nanoparticles (SNPs) was analyzed by a dynamic light scattering size distributor (particle size & zeta potential analyzer, ELS-1000ZS, Otsuka Electronics, Japan) using a UV-transparent cuvette having a path length of 1 cm. The secondary structure of the cyclic peptides of SPNs was analyzed using a Chirascan circular dichroism spectrometer equipped with a Peltier temperature controller (Applied Photophysics, UK). The CD (circular dichroism) spectra of samples were analyzed in a range of 190-260 nm using a cuvette having a path length of 2 mm. The molar residue ellipticity of the samples was calculated per amino acid residue. All mouse experiments were conducted under an animal protocol approved by the Catholic University of Korea on Laboratory Animal Care (2020-0359-05).
It was confirmed from the foregoing experiment that the cyclic peptides prepared in Examples 2-1 to 2-3 form vesicular self-assembled structure when stored in distilled water (DW). The average hydrodynamic diameter (Dn) of the self-assembled structures was measured by dynamic light scattering (DLS) at different temperatures (20° C., 30° C., 40° C.).

SCC7 cells [2] = assay: Photodynamic killing of cancer cells, MTT assay after laser irradiation; assay type: cell-based; conditions: 24 hours, IR laser 671 nm 1.59 J/cm^2, peptidesome in DW
Experimental: SSC7 (squamous cell carcinoma 7) cells were treated with free Pa or the coassembled peptidesome of Example 4-6d (R6:RGD2<-Pa) (1:9) at 30 μM for 24 hours, followed by infrared (IR) laser (671 nm) irradiation at 1.59 J/cm^2. Cytotoxicity as a measure of the photodynamic killing of the cancer cells was determined by MTT assay.
As the samples, 2 μg/mL of free Pa, 2 μg/mL of the coassembled peptidesome of Example 4-6d (R6:RGD2<-Pa) (1:9) (G&G) and 2 μg/mL of the coassembled peptidesome of Example 4-6d (R6:RGD2<-Pa) (1:9) (DW) were used. DW means that distilled water was used instead of the G&G solution.

SCC7 cells [3] = assay: Cellular uptake by CLSM and flow cytometry (FACS); assay type: cell-based; conditions: 2 μg/mL, 4 hours
Experimental: Analysis of intracellular delivery efficiency and FACS in vitro Cellular uptake of materials in SCC7 cells was analyzed based on the intrinsic fluorescence of Pa via CLSM (LSM700, Carl Zeiss, Germany) and flow cytometry (FACS Canto II, BD Biosciences, Bedford, MA, USA). SCC7 cells were seeded onto a 24-well plate at a density of 5×10^4 and incubated overnight. Then, […] of a sample was added to […] of a culture medium for each well. The cells were treated with the sample for 4 hours. Then, the sample was removed and the cells were washed. For cell imaging, cell nuclei were stained with Hoechst 33342.
SCC7 cells were seeded in a 24-well plate at a density of 5×10^4 and incubated overnight. Then, […] of the sample was added to […] of a culture medium. The cells were treated with the sample for 4 hours, followed by removal of the sample and washing. For cell imaging, the cell nuclei were stained with Hoechst 33342. The uptake of materials by the SCC7 cells was analyzed based on the intrinsic fluorescence of Pa via CLSM (LSM700, Carl Zeiss, Germany) and flow cytometry (FACS Canto II, BD Biosciences, Bedford, MA, USA).
As the samples, 2 μg/mL of free Pa, 2 μg/mL of the coassembled peptidesome of Example 4-6d (R6:RGD2<-Pa) (1:9) (G&G) and 2 μg/mL of the coassembled peptidesome of Example 4-6d (R6:RGD2<-Pa) (1:9) (DW) were used. […]

SCC7 cell-derived cancer = assay: In-vivo antitumor efficacy (PDT) in xenograft mouse model; conditions: after 14 days
Experimental: SCC7 tumor-bearing mouse models were prepared similarly to the biodistribution analysis. When the tumor volume reached approximately 50 mm^3, the sample was intravenously injected into the xenograft mice. 3 hours after the sample injection, NIR laser (671 nm) was irradiated to the tumor site with a power of 0.53 W/cm^2 for 15 minutes, and the same sample injection and NIR irradiation were repeated on the next day. The tumor volume and body weight were recorded every two days. At the end of the therapy, major organs and tumors were dissected for histological analysis. […]
Squamous cell carcinoma 7 (SSC7) cells were cultured in an RPMI 1640 medium containing 10% FBS, 1% L-glutamine, 1% penicillin, streptomycin, etc. in a 37° C. incubator maintained at 5% carbon dioxide. The cultured cells were detached from the bottom of the flask using trypsin/EDTA and cell viability was evaluated by trypan blue exclusion assay. […]
After the injection of the sample to each group, tumor volume and body weight were recorded 2 days, 4 days, 6 days, 8 days, 10 days, 12 days and 14 days later. […] The organs and cancer tissues were fixed, prepared into cryosections, stained with hematoxylin and eosin (H&E) and observed with a fluorescence microscope (Axiolmager A1, Zeiss, Germany).

[4] = cited from earlier work

Molecule	average diameter of peptidesome (DLS) [1]	PDT effect (cell viability after laser irradiation) (SCC7 cells [2])	cell internalization efficiency of free Pa relative to the coassembled peptidesome (SCC7 cells [3])	weight of the excised tumor (SCC7 cell-derived cancer; 2 mg/kg, tail vein, NIR laser)	excised tumor weight of free Pa group relative to peptidesome<-Pa(G&G) group (SCC7 cell-derived cancer)	water solubility [4]
CCCCCCCCCCCC(=O)N[C@H]1CCCCNC(=O)[C@H](Cc2c[nH]c3ccccc23)NC(=O)CCC(=O)NCCOCCOCCNC(=O)[C@H](CCCNC(=N)N)NC(=O)[C@H](CCCNC(=N)N)NC(=O)CCC(=O)NCCOCCOCCNC(=O)[C@H](Cc2c[nH]c3ccccc23)NC1=O [Example 2-1]	99-127 nm	–	–	–	–	–
pheophorbide a [free Pa]	–	dose-dependent PDT effect	5 fold	1,222 mg	approximately 3 times	14 µg/mL
